Columns and labels:
ROCKα/ROCKII = molecular target: T1, ROCKα/ROCKII (Homo sapiens, UniProt O75116); assay: ROCK inhibition, Method 2 fluorescence polarization (FP) assay, ROCK IMAP Kit; format: biochemical; conditions: 10 μM ATP, read-out: IC50 Meth. 2
T1 construct: purchased Upstate Biotechnology 14-451

ROCK II = molecular target: T2, ROCK II (Homo sapiens, UniProt O75116); assay: ROCK II kinase inhibition, Method 1 Proqinase setup (33P radioisotopic protein kinase assay); format: biochemical; conditions: 33P radioisotopic assay, 1 μM ATP, read-out: IC50 Meth. 1
T2 construct: purchased Proqinase
Experimental: A ^33P radioisotopic protein kinase assay is used to determine the IC50 for inhibiting ROCK II. A final 50 μl reaction cocktail, containing 60 mM HEPES-NaOH (pH 7.5), 3 mM MgCl2, 3 mM MnCl2, 3 μM Na-orthovanadate, 1.2 mM DTT, 1 μM ATP, 50 μg/ml PEG20.000, 1% (v/v) DMSO, 1 μM ATP (approx. 3×10^5 cpm ^33P-γ-ATP), the substrate (Substrate: S6 peptide—2000 ng/well) and recombinant protein kinase (0.5 nM-2.5 ng/well) is mixed on a shaker and incubated at 30° C. for 80 minutes. The reaction is stopped by the addition of 50 μl of a 2% solution of H3PO4 and mixed on a shaker. After washing twice with 200 μl of a 0.9% solution of NaCl, the dry plate is counted.

T2 sequence (O75116 whole entry): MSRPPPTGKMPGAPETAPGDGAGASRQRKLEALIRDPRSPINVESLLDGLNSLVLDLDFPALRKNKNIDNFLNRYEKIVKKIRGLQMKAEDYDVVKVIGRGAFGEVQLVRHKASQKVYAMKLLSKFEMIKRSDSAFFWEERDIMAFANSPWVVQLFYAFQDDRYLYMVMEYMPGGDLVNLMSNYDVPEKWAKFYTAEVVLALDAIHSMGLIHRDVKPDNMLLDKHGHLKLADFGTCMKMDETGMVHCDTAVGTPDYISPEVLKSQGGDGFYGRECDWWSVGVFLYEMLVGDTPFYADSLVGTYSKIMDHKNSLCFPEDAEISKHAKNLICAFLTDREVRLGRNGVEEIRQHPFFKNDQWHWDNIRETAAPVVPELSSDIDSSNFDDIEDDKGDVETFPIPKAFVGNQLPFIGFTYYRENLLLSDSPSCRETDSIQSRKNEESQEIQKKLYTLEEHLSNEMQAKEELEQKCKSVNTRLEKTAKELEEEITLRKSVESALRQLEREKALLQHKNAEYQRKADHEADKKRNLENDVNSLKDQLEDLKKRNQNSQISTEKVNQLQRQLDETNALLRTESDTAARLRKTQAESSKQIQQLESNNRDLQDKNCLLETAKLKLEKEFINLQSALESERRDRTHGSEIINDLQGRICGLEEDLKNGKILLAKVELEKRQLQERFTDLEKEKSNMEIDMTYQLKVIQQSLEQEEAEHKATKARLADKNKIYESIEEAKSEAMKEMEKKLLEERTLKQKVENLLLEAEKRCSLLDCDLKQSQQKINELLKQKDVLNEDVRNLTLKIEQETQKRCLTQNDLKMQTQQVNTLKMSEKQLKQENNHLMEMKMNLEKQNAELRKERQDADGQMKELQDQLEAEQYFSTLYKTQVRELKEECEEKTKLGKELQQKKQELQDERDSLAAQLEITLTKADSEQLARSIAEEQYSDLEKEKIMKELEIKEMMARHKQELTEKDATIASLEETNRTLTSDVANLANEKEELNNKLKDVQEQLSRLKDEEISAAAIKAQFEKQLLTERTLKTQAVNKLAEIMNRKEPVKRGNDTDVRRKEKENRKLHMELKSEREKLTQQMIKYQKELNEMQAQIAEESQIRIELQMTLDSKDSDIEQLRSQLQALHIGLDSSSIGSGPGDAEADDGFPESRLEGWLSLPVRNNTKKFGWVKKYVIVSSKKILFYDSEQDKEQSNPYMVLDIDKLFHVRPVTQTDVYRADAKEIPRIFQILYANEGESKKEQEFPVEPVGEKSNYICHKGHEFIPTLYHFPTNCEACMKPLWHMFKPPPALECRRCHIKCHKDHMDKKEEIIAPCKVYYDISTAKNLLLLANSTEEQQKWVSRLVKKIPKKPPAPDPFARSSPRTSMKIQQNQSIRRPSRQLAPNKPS
T1 sequence (O75116 whole entry): as above

With `COC(=O)c1cccc(-c2cc(C(=O)Nc3ccncc3F)ccc2C(C)N)c1` (stereo not drawn) [Compound 5, 2′-(1-Amino-ethyl)-5′-(3-fluoro-pyridin-4-ylcarbamoyl)-biphenyl-3-carboxylic acid methyl ester] the IC50 (ROCKα/ROCKII) was under 100 nM and the IC50 (ROCK II) was 100 to 1000 nM.
`CCOC(=O)c1cccc(-c2cc(C(=O)Nc3ccncc3)ccc2C(C)N)c1` (stereo not drawn) [Compound 8, 2′-(1-Amino-ethyl)-5′-(pyridin-4-ylcarbamoyl)-biphenyl-3-carboxylic acid ethyl ester] gave an IC50 (ROCKα/ROCKII) of under 100 nM and an IC50 (ROCK II) of under 100 nM.
`CCCOC(=O)c1cccc(-c2cc(C(=O)Nc3ccncc3)ccc2C(C)N)c1` (stereo not drawn) [Compound 11, 2′-(1-Amino-ethyl)-5′-(pyridin-4-ylcarbamoyl)-biphenyl-3-carboxylic acid propyl ester] was tested, and the IC50 (ROCKα/ROCKII) was under 100 nM and the IC50 (ROCK II) was under 100 nM.
`CCCOC(=O)c1cccc(-c2cc(C(=O)Nc3ccncc3F)ccc2C(C)N)c1` (stereo not drawn) [Compound 12, 2′-(1-Amino-ethyl)-5′-(3-fluoro-pyridin-4-ylcarbamoyl)-biphenyl-3-carboxylic acid propyl ester] showed an IC50 (ROCKα/ROCKII) of under 100 nM and an IC50 (ROCK II) of 100 to 1000 nM.
Work on `CCCCOC(=O)c1cccc(-c2cc(C(=O)Nc3ccncc3)ccc2C(C)N)c1` (stereo not drawn) [Compound 13, 2′-(1-Amino-ethyl)-5′-(pyridin-4-ylcarbamoyl)-biphenyl-3-carboxylic acid butyl ester] yielded an IC50 (ROCKα/ROCKII) of under 100 nM and an IC50 (ROCK II) of under 100 nM.
`CC(C)COC(=O)c1cccc(-c2cc(C(=O)Nc3ccncc3F)ccc2C(C)N)c1` (stereo not drawn) [Compound 28, 2′-(1-Amino-ethyl)-5′-(3-fluoro-pyridin-4-ylcarbamoyl)-biphenyl-3-carboxylic acid isobutyl ester] showed an IC50 (ROCKα/ROCKII) of 100 to 1000 nM and an IC50 (ROCK II) of 100 to 1000 nM.
Work on `CC(N)c1ccc(C(=O)Nc2ccncc2F)cc1-c1cccc(C(=O)OCC2CC2)c1` (stereo not drawn) [Compound 37, 2′-(1-Amino-ethyl)-5′-(3-fluoro-pyridin-4-ylcarbamoyl)-biphenyl-3-carboxylic acid cyclopropylmethyl ester] yielded an IC50 (ROCKα/ROCKII) of under 100 nM and an IC50 (ROCK II) of 100 to 1000 nM.
`CC(N)c1ccc(C(=O)Nc2ccncc2)cc1-c1cccc(C(=O)OCC2CCCO2)c1` (stereo not drawn) [Compound 44, 2′-(1-Amino-ethyl)-5′-(pyridin-4-ylcarbamoyl)-biphenyl-3-carboxylic acid tetrahydro-furan-2-ylmethyl ester] was tested, and the IC50 (ROCKα/ROCKII) was under 100 nM and the IC50 (ROCK II) was under 100 nM.
`CC(N)c1ccc(C(=O)Nc2ccncc2)cc1-c1cccc(C(=O)OCC2CCCCO2)c1` (stereo not drawn) [Compound 45, 2′-(1-Amino-ethyl)-5′-(pyridin-4-ylcarbamoyl)-biphenyl-3-carboxylic acid tetrahydro-pyran-2-ylmethyl ester] gave an IC50 (ROCKα/ROCKII) of under 100 nM and an IC50 (ROCK II) of under 100 nM.
For `NCc1ccc(C(=O)Nc2ccncc2)cc1-c1cccc(C(=O)Oc2ccccc2F)c1` [Compound 53, 2′-Aminomethyl-5′-(pyridin-4-ylcarbamoyl)-biphenyl-3-carboxylic acid 2-fluoro-phenyl ester], the IC50 (ROCK II) was 100 to 1000 nM.
Compound `NCc1ccc(C(=O)Nc2ccncc2)cc1-c1cccc(C(=O)OCC2COc3ccccc3O2)c1` (stereo not drawn) [Compound 55, 2′-Aminomethyl-5′-(pyridin-4-ylcarbamoyl)-biphenyl-3-carboxylic acid 2,3-dihydro-benzo[1,4]dioxin-2-ylmethyl ester] has an IC50 (ROCK II) of under 100 nM.
In the case of `CC(N)c1ccc(C(=O)Nc2ccncc2)cc1-c1cccc(C(=O)OCCF)c1` (stereo not drawn) [Compound 60, 2′-(1-Amino-ethyl)-5′-(pyridin-4-ylcarbamoyl)-biphenyl-3-carboxylic acid 2-fluoro-ethyl ester], the IC50 (ROCKα/ROCKII) is reported as under 100 nM and the IC50 (ROCK II) is reported as 100 to 1000 nM.
`CC(N)c1ccc(C(=O)Nc2ccncc2)cc1-c1cccc(C(=O)Oc2ccccc2)c1` (stereo not drawn) [Compound 70, 2′-(1-Amino-ethyl)-5′-(pyridin-4-ylcarbamoyl)-biphenyl-3-carboxylic acid phenyl ester] gave an IC50 (ROCKα/ROCKII) of under 100 nM and an IC50 (ROCK II) of under 100 nM.
For `CC(N)c1ccc(C(=O)Nc2ccncc2F)cc1-c1cccc(C(=O)Oc2ccccc2)c1` (stereo not drawn) [Compound 71, 2′-(1-Amino-ethyl)-5′-(3-fluoro-pyridin-4-ylcarbamoyl)-biphenyl-3-carboxylic acid phenyl ester], the IC50 (ROCKα/ROCKII) was 100 to 1000 nM and the IC50 (ROCK II) was 100 to 1000 nM.
In the case of `CC(N)c1ccc(C(=O)Nc2ccncc2)cc1-c1cccc(C(=O)OCCCOc2ccccc2)c1` (stereo not drawn) [Compound 88, 2′-(1-Amino-ethyl)-5′-(pyridin-4-ylcarbamoyl)-biphenyl-3-carboxylic acid 3-phenoxy-propyl ester], the IC50 (ROCKα/ROCKII) is reported as 100 to 1000 nM and the IC50 (ROCK II) is reported as under 100 nM.
In the case of `CC(N)c1ccc(C(=O)Nc2ccncc2)cc1-c1cccc(C(=O)OCc2ccoc2)c1` (stereo not drawn) [Compound 90, 2′-(1-Amino-ethyl)-5′-(pyridin-4-ylcarbamoyl)-biphenyl-3-carboxylic acid furan-3-ylmethyl ester], the IC50 (ROCKα/ROCKII) is reported as 100 to 1000 nM and the IC50 (ROCK II) is reported as under 100 nM.
For `COC(=O)CNC(=O)c1cccc(-c2cc(C(=O)Nc3ccncc3)ccc2CN)c1` [Compound 102, {[2′-Aminomethyl-5′-(pyridin-4-ylcarbamoyl)-biphenyl-3-carbonyl]-amino}-acetic acid methyl ester], the IC50 (ROCK II) was under 100 nM.
`NCc1ccc(C(=O)Nc2ccncc2)cc1-c1cccc(C(=O)NCC(N)=O)c1` [Compound 106, 6-Aminomethyl-biphenyl-3,3′-dicarboxylic acid 3′-carbamoylmethyl-amide 3-pyridin-4-ylamide] was tested, and the IC50 (ROCK II) was under 100 nM.
`NCc1ccc(C(=O)Nc2ccncc2)cc1-c1cccc(C(=O)NCCC2COC(=O)O2)c1` (stereo not drawn) [Compound 113, 6-Aminomethyl-biphenyl-3,3′-dicarboxylic acid 3′-{[2-(2-oxo-[1,3]dioxolan-4-yl)-ethyl]-amide} 3-pyridin-4-ylamide] gave an IC50 (ROCK II) of 100 to 1000 nM.
In the case of `COC(=O)C1CCCCN1C(=O)c1cccc(-c2cc(C(=O)Nc3ccncc3)ccc2CN)c1` (stereo not drawn) [Compound 122, 1-[2′-Aminomethyl-5′-(pyridin-4-ylcarbamoyl)-biphenyl-3-carbonyl]-piperidine-2-carboxylic acid methyl ester], the IC50 (ROCK II) is reported as 1000 to 10000 nM.
Compound `COC(=O)C1CCN(C(=O)c2cccc(-c3cc(C(=O)Nc4ccncc4)ccc3CN)c2)CC1` [Compound 124, 1-[2′-Aminomethyl-5′-(pyridin-4-ylcarbamoyl)-biphenyl-3-carbonyl]-piperidine-4-carboxylic acid methyl ester] has an IC50 (ROCK II) of 1000 to 10000 nM.
For `COC(=O)C1CCN(C(=O)c2cccc(-c3cc(C(=O)Nc4ccncc4)ccc3CN)c2)C1` (stereo not drawn) [Compound 127, 1-[2′-Aminomethyl-5′-(pyridin-4-ylcarbamoyl)-biphenyl-3-carbonyl]-pyrrolidine-3-carboxylic acid methyl ester], the IC50 (ROCK II) was 1000 to 10000 nM.
Compound `NCc1ccc(C(=O)Nc2ccncc2)cc1-c1cccc(NCCSC2CCOC2=O)c1` (stereo not drawn) [Compound 136, 6-Aminomethyl-3′-[2-(2-oxo-tetrahydro-furan-3-ylsulfanyl)-ethylamino]-biphenyl-3-carboxylic acid pyridin-4-ylamide] has an IC50 (ROCK II) of 100 to 1000 nM.
In the case of `CCSC(=O)COc1cccc(-c2cc(C(=O)Nc3ccncc3)ccc2CN)c1` [Compound 143, [2′-Aminomethyl-5′-(pyridin-4-ylcarbamoyl)-biphenyl-3-yloxy]-thioacetic acid S-ethyl ester], the IC50 (ROCK II) is reported as 100 to 1000 nM.
Work on `COC(=O)CNC(=O)COc1cccc(-c2cc(C(=O)Nc3ccncc3)ccc2CN)c1` [Compound 147, {2-[2′-Aminomethyl-5′-(pyridin-4-ylcarbamoyl)-biphenyl-3-yloxy]-acetylamino}-acetic acid methyl ester] yielded an IC50 (ROCK II) of under 100 nM.
`COC(=O)c1cc2c(-c3cc(C(=O)Nc4ccncc4)ccc3C(C)N)cccc2[nH]1` (stereo not drawn) [Compound 171, 4-[2-(1-Amino-ethyl)-5-(pyridin-4-ylcarbamoyl)-phenyl]-1H-indole-2-carboxylic acid methyl ester] showed an IC50 (ROCK II) of 100 to 1000 nM.
`NCc1ccc(C(=O)Nc2ccncc2F)cc1-c1cccc(C(=O)OCCF)c1` [Compound 178] gave an IC50 (ROCK II) of 100 to 1000 nM.
For `NCc1ccc(C(=O)Nc2ccncc2F)cc1-c1cccc(C(=O)NC2CCSC2=O)c1` (stereo not drawn) [Compound 179], the IC50 (ROCK II) was 100 to 1000 nM.
In the case of `NCc1ccc(C(=O)Nc2ccncc2F)cc1-c1cccc(C(=O)OCc2ccccc2)c1` [Compound 180], the IC50 (ROCK II) is reported as 100 to 1000 nM.
`NCc1ccc(C(=O)Nc2ccncc2F)cc1-c1cccc(OCC(=O)OCc2ccccc2)c1` [Compound 181] was tested, and the IC50 (ROCK II) was 1000 to 10000 nM.
Work on `NCc1ccc(C(=O)Nc2ccncc2F)cc1-c1cccc(CC(=O)OCC23CC4CC(CC(C4)C2)C3)c1` [Compound 182] yielded an IC50 (ROCK II) of 100 to 1000 nM.
In the case of `NCc1ccc(C(=O)Nc2ccncc2F)cc1-c1cccc(C(=O)OCCO)c1` [Compound 183], the IC50 (ROCK II) is reported as 100 to 1000 nM.
Compound `NCc1ccc(C(=O)Nc2ccncc2F)cc1-c1cccc(C(=O)OCC2CCC2)c1` [Compound 184] has an IC50 (ROCK II) of 100 to 1000 nM.
`NCc1ccc(C(=O)Nc2ccncc2F)cc1-c1cccc(C(=O)OCC2CCCC2)c1` [Compound 185] was tested, and the IC50 (ROCK II) was 100 to 1000 nM.
For `NCc1ccc(C(=O)Nc2ccncc2F)cc1-c1cccc(C(=O)OCC2CCCO2)c1` (stereo not drawn) [Compound 187], the IC50 (ROCK II) was 100 to 1000 nM.
`NCc1ccc(C(=O)Nc2ccncc2F)cc1-c1cccc(C(=O)OCCC23CC4CC(CC(C4)C2)C3)c1` [Compound 189] gave an IC50 (ROCK II) of 100 to 1000 nM.
`NCc1ccc(C(=O)Nc2ccncc2F)cc1-c1cccc(OCC(=O)OCC2CCCC2)c1` [Compound 191] gave an IC50 (ROCK II) of 100 to 1000 nM.
Work on `NCc1ccc(C(=O)Nc2ccncc2F)cc1-c1cccc(CC(=O)OCCF)c1` [Compound 192] yielded an IC50 (ROCK II) of 1000 to 10000 nM.
`N#CCCOC(=O)Cc1cccc(-c2cc(C(=O)Nc3ccncc3F)ccc2CN)c1` [Compound 194] was tested, and the IC50 (ROCK II) was 1000 to 10000 nM.
Compound `NCc1ccc(C(=O)Nc2ccncc2F)cc1-c1cccc(CC(=O)OCCO)c1` [Compound 195] has an IC50 (ROCK II) of 1000 to 10000 nM.
